Values of other authors, collected in patent publication US20240316119A1, “COMPOSITIONS AND METHODS FOR SUPPRESSING PATHOGENIC ORGANISMS” (VEDANTA BIOSCIENCES, INC., priority 2021, published 2024).

System: Klebsiella pneumoniae and Citrobacter rodentium
Conditions: reported in Stacy et al. Cell. 2021 184(3):615-627

NCCS(=O)(=O)O [taurine, 2-aminoethanesulfonic acid]
effect of supplying exogenous taurine alone on microbiota function and resistance to infection: sufficient to induce this alteration in microbiota function and enhance resistance
